Source: ChEMBL document CHEMBL1136291, “Synthesis of C-8 methanesulphonate substituted pyrrolobenzodiazepines as potential antitumour agents” (2003)
Each block holds one compound with its values, some of them ahead of it.

Columns and labels:
SR = assay: In vitro antitumor activity against human leukemia SR cell line; assay type: functional
CCRF-CEM = assay: In vitro antitumor activity against human leukemia CCRF-CEM cell line; assay type: functional
OVCAR-4 = assay: In vitro antitumor activity against human ovarian OVCAR-4 cell line; assay type: functional
SNB-75 = assay: In vitro antitumor activity against human CNS SNB-75 cell line; assay type: functional
NCI-H23 = assay: In vitro antitumor activity against human non-small cell lung NCI-H23 cell line
TK-10 = assay: In vitro antitumor activity against human renal TK-10 cell line; assay type: functional
NCI-H226 = assay: In vitro antitumor activity against human non-small cell lung NCI-H226 cell line; assay type: functional
OVCAR-3 = assay: In vitro antitumor activity against human ovarian OVCAR-3 cell line; assay type: functional
UO-31 = assay: In vitro antitumor activity against human renal UO-31 cell line; assay type: functional
NCI/ADR-RES = assay: In vitro antitumor activity against human breast NCI/ADR-RES cell line; assay type: functional
SF-539 = assay: In vitro antitumor activity against human CNS SF-539 cell line; assay type: functional
786-0 = assay: In vitro antitumor activity against human renal 786-0 cell line; assay type: functional
MDA-MB-231 = assay: In vitro antitumor activity against human breast MDA-MB-231/ATCC cell line; assay type: functional
HCT-15 = assay: In vitro antitumor activity against human Colon HCT-15 cell line; assay type: functional
RPMI-8226 = assay: In vitro antitumor activity against human leukemia RPMI-8226 cell line; assay type: functional
LOX IMVI = assay: In vitro antitumor activity against human melanoma […] cell line; assay type: functional
HCT-116 = assay: In vitro antitumor activity against human Colon HCT116 cell line; assay type: functional
ACHN = assay: In vitro antitumor activity against human renal ACHN cell line; assay type: functional
Malme-3M = assay: In vitro antitumor activity against human melanoma MALME-3M cell line; assay type: functional
U-251 = assay: In vitro antitumor activity against human CNS U251 cell line; assay type: functional
M14 = assay: In vitro antitumor activity against human melanoma M14 cell line; assay type: functional
CAKI-1 = assay: In vitro antitumor activity against human renal CAKI-1 cell line; assay type: functional
UACC-62 = assay: In vitro antitumor activity against human melanoma UACC-62 cell line; assay type: functional
UACC-257 = assay: In vitro antitumor activity against human melanoma UACC-257 cell line; assay type: functional
A498 = assay: In vitro antitumor activity against human renal A498 cell line; assay type: functional
NCI-H522 = assay: In vitro antitumor activity against human non-small cell lung NCI-H522 cell line; assay type: functional
SW-620 = assay: In vitro antitumor activity against human Colon SW-620 cell line; assay type: functional
SK-MEL-5 = assay: In vitro antitumor activity against human melanoma SK-MEL-5 cell line; assay type: functional

GI50 (CCRF-CEM): 52.8 µM
GI50 (OVCAR-4): 70.3 µM
SMILES: COc1cc2c(cc1OCCCOS(C)(=O)=O)N=C[C@@H]1CCCN1C2=O
GI50 (SR): 62.9 µM
GI50 (SNB-75): 94.7 µM

GI50 (NCI-H23): 12.2 µM
GI50 (NCI-H226): 15.4 µM
GI50 (OVCAR-3): 16.3 µM
GI50 (786-0): 17 µM
GI50 (MDA-MB-231): 16.5 µM
GI50 (HCT-15): 16.5 µM
GI50 (CCRF-CEM): 14.5 µM
GI50 (RPMI-8226): 12.2 µM
GI50 (HCT-116): 18.5 µM
GI50 (ACHN): 16 µM
GI50 (U-251): 17.1 µM
GI50 (NCI-H522): 10.9 µM
GI50 (SW-620): 14.6 µM
GI50 (SK-MEL-5): 16.9 µM
SMILES: COc1cc2c(cc1OCCOS(C)(=O)=O)N=C[C@@H]1CCCN1C2=O
GI50 (TK-10): 18.1 µM
GI50 (UO-31): 15.2 µM
GI50 (NCI/ADR-RES): 13.5 µM
GI50 (SF-539): 18.6 µM
GI50 (SR): 11.1 µM
GI50 (LOX IMVI): 15.7 µM
GI50 (Malme-3M): 13.6 µM
GI50 (M14): 18.7 µM
GI50 (CAKI-1): 17.7 µM
GI50 (UACC-62): 19.4 µM
GI50 (UACC-257): 18.2 µM
GI50 (A498): 17.1 µM
